Assay results published in ChEMBL document CHEMBL5120927, “LEGO-Lipophosphonoxins: A Novel Approach in Designing Membrane Targeting Antimicrobials” (J Med Chem, 2022).

Tested on: not listed separately
Experiment: Gradient chromatographic hydrophobicity index of the compound at pH 3.7 by HPLC analysis
Format: ADME
Details: not given
Compound `CCCCCOP(=O)(CCN(CCCN)CCCN)OCCCCCCCCOP(=O)(CCN(CCCN)CCCN)OCCCCC.Cl.Cl.Cl.Cl.Cl.Cl` (stereo unspecified) has a CHI of 27.5.
For `CCCCCCCCCCOP(=O)(CCN(CCCN)CCCN)OCCCOP(=O)(CCN(CCCN)CCCN)OCCCCCCCCCC.Cl.Cl.Cl.Cl.Cl.Cl` (stereo unspecified), the CHI was 43.7.

Tested on: Staphylococcus aureus
Experiment: Antibacterial activity against Staphylococcus aureus ATCC 29213 = CCM 4223 assessed as inhibition of bacterial growth incubated for 24 hrs in presence of BSA by microdilution assay
Format: functional
Details: not given
With `CCCCCOP(=O)(CCN(CCCN)CCCN)OCCCCCCCCOP(=O)(CCN(CCCN)CCCN)OCCCCC.Cl.Cl.Cl.Cl.Cl.Cl` (stereo unspecified) the MIC was 32 µg/mL.
`CCCCCCCCCCOP(=O)(CCN(CCCN)CCCN)OCCCOP(=O)(CCN(CCCN)CCCN)OCCCCCCCCCC.Cl.Cl.Cl.Cl.Cl.Cl` (stereo unspecified) showed an MIC of 1 µg/mL.

Tested on: Enterococcus faecium
Experiment: Antibacterial activity against vancomycin resistant Enterococcus faecium 419/ANA assessed as reduction in microbial growth incubated for 24 hrs by microdilution assay
Format: functional
Details: not given
For `CCCCCOP(=O)(CCN(CCCN)CCCN)OCCCCCCCCOP(=O)(CCN(CCCN)CCCN)OCCCCC.Cl.Cl.Cl.Cl.Cl.Cl` (stereo unspecified), the MIC was > 128 µg/mL.
`CCCCCCCCCCOP(=O)(CCN(CCCN)CCCN)OCCCOP(=O)(CCN(CCCN)CCCN)OCCCCCCCCCC.Cl.Cl.Cl.Cl.Cl.Cl` (stereo unspecified) showed an MIC of 4 µg/mL.

Tested on: Pseudomonas aeruginosa
Experiment: Antibacterial activity against multidrug-resistant Pseudomonas aeruginosa assessed as reduction in microbial growth incubated for 24 hrs by microdilution assay
Format: functional
Details: not given
`CCCCCOP(=O)(CCN(CCCN)CCCN)OCCCCCCCCOP(=O)(CCN(CCCN)CCCN)OCCCCC.Cl.Cl.Cl.Cl.Cl.Cl` (stereo unspecified) showed an MIC of 128 µg/mL.
Work on `CCCCCCCCCCOP(=O)(CCN(CCCN)CCCN)OCCCOP(=O)(CCN(CCCN)CCCN)OCCCCCCCCCC.Cl.Cl.Cl.Cl.Cl.Cl` (stereo unspecified) yielded an MIC of 2 µg/mL.

Tested on: Escherichia coli
Experiment: Antibacterial activity against Escherichia coli ATCC 25922 = CCM 3954 assessed as inhibition of bacterial growth incubated for 24 hrs in presence of BSA by microdilution assay
Format: functional
Details: not given
With `CCCCCOP(=O)(CCN(CCCN)CCCN)OCCCCCCCCOP(=O)(CCN(CCCN)CCCN)OCCCCC.Cl.Cl.Cl.Cl.Cl.Cl` (stereo unspecified) the MIC was > 128 µg/mL.
`CCCCCCCCCCOP(=O)(CCN(CCCN)CCCN)OCCCOP(=O)(CCN(CCCN)CCCN)OCCCCCCCCCC.Cl.Cl.Cl.Cl.Cl.Cl` (stereo unspecified) gave an MIC of 4 µg/mL.

Tested on: Enterococcus faecalis
Experiment: Antibacterial activity against Enterococcus faecalis ATCC 29212 = CCM 4224 assessed as inhibition of bacterial growth incubated for 24 hrs by microdilution assay
Format: functional
Details: not given
With `CCCCCOP(=O)(CCN(CCCN)CCCN)OCCCCCCCCOP(=O)(CCN(CCCN)CCCN)OCCCCC.Cl.Cl.Cl.Cl.Cl.Cl` (stereo unspecified) the MIC was > 128 µg/mL.
In the case of `CCCCCCCCCCOP(=O)(CCN(CCCN)CCCN)OCCCOP(=O)(CCN(CCCN)CCCN)OCCCCCCCCCC.Cl.Cl.Cl.Cl.Cl.Cl` (stereo unspecified), the MIC is reported as 1 µg/mL.

Tested on: Staphylococcus epidermidis
Experiment: Antibacterial activity against Staphylococcus epidermidis CCM 7221 assessed as inhibition of bacterial growth incubated for 24 hrs by microdilution assay
Format: functional
Details: not given
Work on `CCCCCOP(=O)(CCN(CCCN)CCCN)OCCCCCCCCOP(=O)(CCN(CCCN)CCCN)OCCCCC.Cl.Cl.Cl.Cl.Cl.Cl` (stereo unspecified) yielded an MIC of 4 µg/mL.
For `CCCCCCCCCCOP(=O)(CCN(CCCN)CCCN)OCCCOP(=O)(CCN(CCCN)CCCN)OCCCCCCCCCC.Cl.Cl.Cl.Cl.Cl.Cl` (stereo unspecified), the MIC was 1 µg/mL.

Tested on: Staphylococcus aureus
Experiment: Antibacterial activity against Staphylococcus aureus ATCC 29213 = CCM 4223 assessed as inhibition of bacterial growth incubated for 24 hrs by microdilution assay
Format: functional
Details: not given
For `CCCCCOP(=O)(CCN(CCCN)CCCN)OCCCCCCCCOP(=O)(CCN(CCCN)CCCN)OCCCCC.Cl.Cl.Cl.Cl.Cl.Cl` (stereo unspecified), the MIC was 16 µg/mL.
Work on `CCCCCCCCCCOP(=O)(CCN(CCCN)CCCN)OCCCOP(=O)(CCN(CCCN)CCCN)OCCCCCCCCCC.Cl.Cl.Cl.Cl.Cl.Cl` (stereo unspecified) yielded an MIC of 1 µg/mL.

Tested on: Escherichia coli
Experiment: Antibacterial activity against multidrug-resistant Escherichia coli CE5556 expressing CTX-M-15 assessed as reduction in microbial growth incubated for 24 hrs by microdilution assay
Format: functional
Details: not given
For `CCCCCOP(=O)(CCN(CCCN)CCCN)OCCCCCCCCOP(=O)(CCN(CCCN)CCCN)OCCCCC.Cl.Cl.Cl.Cl.Cl.Cl` (stereo unspecified), the MIC was > 128 µg/mL.
Compound `CCCCCCCCCCOP(=O)(CCN(CCCN)CCCN)OCCCOP(=O)(CCN(CCCN)CCCN)OCCCCCCCCCC.Cl.Cl.Cl.Cl.Cl.Cl` (stereo unspecified) has an MIC of 1 µg/mL.

Tested on: not listed separately
Experiment: Hemolytic activity in human RBC assessed as haemoglobin release measured after 3 hr
Format: toxicity, cell-based, Erythrocyte
Details: red blood cells (erythrocytes)
For `CCCCCOP(=O)(CCN(CCCN)CCCN)OCCCCCCCCOP(=O)(CCN(CCCN)CCCN)OCCCCC.Cl.Cl.Cl.Cl.Cl.Cl` (stereo unspecified), the HC50 at 3 h was > 100 µg/mL.
`CCCCCCCCCCOP(=O)(CCN(CCCN)CCCN)OCCCOP(=O)(CCN(CCCN)CCCN)OCCCCCCCCCC.Cl.Cl.Cl.Cl.Cl.Cl` (stereo unspecified) showed an HC50 at 3 h of 31.6 µg/mL.

Tested on: Escherichia coli
Experiment: Antibacterial activity against Escherichia coli ATCC 25922 = CCM 3954 assessed as inhibition of bacterial growth incubated for 24 hrs by microdilution assay
Format: functional
Details: not given
In the case of `CCCCCOP(=O)(CCN(CCCN)CCCN)OCCCCCCCCOP(=O)(CCN(CCCN)CCCN)OCCCCC.Cl.Cl.Cl.Cl.Cl.Cl` (stereo unspecified), the MIC is reported as > 128 µg/mL.
Work on `CCCCCCCCCCOP(=O)(CCN(CCCN)CCCN)OCCCOP(=O)(CCN(CCCN)CCCN)OCCCCCCCCCC.Cl.Cl.Cl.Cl.Cl.Cl` (stereo unspecified) yielded an MIC of 1 µg/mL.

Tested on: Staphylococcus aureus
Experiment: Antibacterial activity against methicillin resistant Staphylococcus aureus 4591/A assessed as reduction in microbial growth incubated for 24 hrs by microdilution assay
Format: functional
Details: not given
`CCCCCOP(=O)(CCN(CCCN)CCCN)OCCCCCCCCOP(=O)(CCN(CCCN)CCCN)OCCCCC.Cl.Cl.Cl.Cl.Cl.Cl` (stereo unspecified) gave an MIC of 8 µg/mL.
Compound `CCCCCCCCCCOP(=O)(CCN(CCCN)CCCN)OCCCOP(=O)(CCN(CCCN)CCCN)OCCCCCCCCCC.Cl.Cl.Cl.Cl.Cl.Cl` (stereo unspecified) has an MIC of 1 µg/mL.

Tested on: Pseudomonas aeruginosa
Experiment: Antibacterial activity against Pseudomonas aeruginosa ATCC 27853 = CCM 3955 assessed as inhibition of bacterial growth incubated for 24 hrs by microdilution assay
Format: functional
Details: not given
In the case of `CCCCCOP(=O)(CCN(CCCN)CCCN)OCCCCCCCCOP(=O)(CCN(CCCN)CCCN)OCCCCC.Cl.Cl.Cl.Cl.Cl.Cl` (stereo unspecified), the MIC is reported as > 128 µg/mL.
In the case of `CCCCCCCCCCOP(=O)(CCN(CCCN)CCCN)OCCCOP(=O)(CCN(CCCN)CCCN)OCCCCCCCCCC.Cl.Cl.Cl.Cl.Cl.Cl` (stereo unspecified), the MIC is reported as 2 µg/mL.
